Source: patent US10183021B2, “sGC stimulators” (Ironwood Pharmaceuticals, Inc., priority 2013, dated 2019)
Like-named read-outs stand apart in the source and are kept apart here.

Target: soluble guanylate cyclase (sGC) (Homo sapiens (Human), UniProt Q02108+Q02153)
Experiment: sGC-HEK-cGMP assay with SNP incubation, LC/MS detection (Example 2A)
Assay type: cell-based
Settings: HEK293 cells, 10 μM SNP, LC/MS detection; for Emax: 100% = BAY 41-2272 at 10 μM, read-out: HEK assay Emax - unconstrained (%)
Outline: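 HEK293 cells with endogenous sGC were pretreated 15 min at 37 °C with 0.5 mM IBMX, then exposed 10 min at 37 °C to compound (added from 0.0001–30 μM solutions) plus SNP (from 10 μM solution). After 0.1 M HCl lysis, cGMP was quantified by LC/MS against a standard curve.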

[1] = top of curve not fitted to 100%, read-out: HEK assay EC50 - unconstrained

Sequence of soluble guanylate cyclase (sGC) (Q02153 whole entry): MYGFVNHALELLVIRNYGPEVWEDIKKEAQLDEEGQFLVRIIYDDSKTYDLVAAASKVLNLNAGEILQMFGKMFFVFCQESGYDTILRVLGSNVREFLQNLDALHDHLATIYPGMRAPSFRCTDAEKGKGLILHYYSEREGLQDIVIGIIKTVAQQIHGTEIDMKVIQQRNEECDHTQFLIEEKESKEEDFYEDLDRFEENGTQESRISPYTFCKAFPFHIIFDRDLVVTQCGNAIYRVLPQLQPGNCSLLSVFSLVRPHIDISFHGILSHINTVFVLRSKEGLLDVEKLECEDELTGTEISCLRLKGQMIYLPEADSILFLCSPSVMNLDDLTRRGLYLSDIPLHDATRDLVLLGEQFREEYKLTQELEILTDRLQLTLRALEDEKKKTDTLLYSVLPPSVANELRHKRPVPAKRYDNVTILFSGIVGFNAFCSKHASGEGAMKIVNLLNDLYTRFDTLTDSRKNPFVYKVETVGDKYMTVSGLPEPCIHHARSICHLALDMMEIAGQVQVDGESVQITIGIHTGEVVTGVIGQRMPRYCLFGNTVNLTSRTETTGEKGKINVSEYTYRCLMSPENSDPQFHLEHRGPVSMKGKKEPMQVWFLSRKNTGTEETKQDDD
Sequence of soluble guanylate cyclase (sGC) (Q02108 whole entry): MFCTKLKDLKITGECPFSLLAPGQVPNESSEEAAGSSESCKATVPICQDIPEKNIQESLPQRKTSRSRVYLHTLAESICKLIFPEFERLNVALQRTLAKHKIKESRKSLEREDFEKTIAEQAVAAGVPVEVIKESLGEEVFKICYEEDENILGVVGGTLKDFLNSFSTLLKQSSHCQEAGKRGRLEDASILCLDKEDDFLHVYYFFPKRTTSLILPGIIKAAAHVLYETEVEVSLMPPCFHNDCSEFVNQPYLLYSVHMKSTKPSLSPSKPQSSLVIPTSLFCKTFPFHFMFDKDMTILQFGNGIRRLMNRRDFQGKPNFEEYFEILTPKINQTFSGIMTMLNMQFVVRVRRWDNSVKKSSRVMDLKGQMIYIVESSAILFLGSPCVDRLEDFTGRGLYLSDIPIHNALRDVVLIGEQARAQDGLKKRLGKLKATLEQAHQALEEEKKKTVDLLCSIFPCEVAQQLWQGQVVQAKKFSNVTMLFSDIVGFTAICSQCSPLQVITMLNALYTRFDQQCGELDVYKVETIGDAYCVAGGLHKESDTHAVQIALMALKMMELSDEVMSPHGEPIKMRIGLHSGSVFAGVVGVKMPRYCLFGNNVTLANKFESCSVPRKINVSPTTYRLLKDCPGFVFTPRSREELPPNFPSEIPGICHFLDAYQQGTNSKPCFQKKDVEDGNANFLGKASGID

SMILES	Emax [%]	EC50 [1] [nM]	EC50 (top of curve fitted to 100%, read-out: HEK assay EC50 - constrained) [nM]
C[C@@H](C(=O)O)N(C)c1nc(-c2cc(-c3ccon3)n(Cc3ccccc3F)n2)ncc1F [Compound I-207]	100 to 120	500 to 1000	
O=C(O)CN(CC(F)(F)F)c1nc(-c2cc(-c3ccon3)n(Cc3ccccc3F)n2)ncc1F [Compound I-273]	60 to 80	500 to 1000	
OCC1CNCCN1c1nc(-c2cc(-c3ccon3)n(Cc3ccccc3F)n2)ncc1F (stereo not drawn) [Compound I-211]	> 120	1000 to 5000	
O=C(O)[C@H](Cc1ccccc1)Nc1nc(-c2cc(-c3ccon3)n(Cc3ccccc3F)n2)ncc1F [Compound I-80]	80 to 100	500 to 1000	
CNc1nc(-c2cc(-c3ccon3)n(Cc3ccccc3F)n2)ncc1F [Compound I-196]	80 to 100		
CC(C)(C)OC(=O)N1CCC(Nc2nc(-c3cc(-c4ccon4)n(Cc4ccccc4F)n3)ncc2F)(C(=O)O)CC1 [Compound I-110]	20 to 40	> 10000	
COC(=O)C1CCCN1c1nc(-c2cc(-c3ccon3)n(Cc3ccccc3F)n2)ncc1F (stereo not drawn) [Compound I-34]	40 to 60	500 to 1000	
Fc1ccccc1Cn1nc(-c2ncc(F)c(-n3cccn3)n2)cc1-c1ccon1 [Compound I-74]	40 to 60	1000 to 5000	
CCOC(=O)CN(c1nc(-c2cc(-c3ccon3)n(Cc3ccccc3F)n2)ncc1F)C1(C)CCOCC1 [Compound I-246]	40 to 60	1000 to 5000	
O=S1(=O)CCN(C2CN(c3nc(-c4cc(-c5ccon5)n(Cc5ccccc5F)n4)ncc3F)C2)CC1 [Compound I-72]	60 to 80	100 to 500	
COc1cnc(-c2cc(-c3ccon3)n(Cc3ccccc3F)n2)nc1N1CCOCC1 [Compound I-73]	40 to 60	5000 to 10000	
O=C(O)C(CC(F)(F)F)Nc1nc(-c2cc(-c3ccon3)n(Cc3ccccc3F)n2)ncc1F (stereo not drawn) [Compound I-180]	80 to 100	1000 to 5000	
CN(c1nc(-c2cc(-c3ccon3)n(Cc3ccccc3F)n2)ncc1F)[C@@H]1CCCC[C@H]1C(=O)O [Compound I-242]	100 to 120	100 to 500	
OCC1C[C@H]2CC[C@@H](C1)N2c1nc(-c2cc(-c3ccon3)n(Cc3ccccc3F)n2)ncc1F (stereo partly drawn) [Compound I-82]	60 to 80	100 to 500	
CC1CN(c2nc(-c3cc(-c4ccon4)n(Cc4ccccc4F)n3)ncc2F)CCC1C(=O)O (stereo not drawn) [Compound I-190]	60 to 80	1000 to 5000	
CN(C)c1nc(-c2cc(-c3ccon3)n(Cc3ccccc3F)n2)ncc1F [Compound I-8]	60 to 80	100 to 500	
CC(C)(C)OC(=O)NC1CN(c2nc(-c3cc(-c4ccon4)n(Cc4ccccc4F)n3)ncc2F)C1 [Compound I-21, tert-butyl (1-(5-fluoro-2-(1-(2-fluorobenzyl)-5-(isoxazol-3-yl)-1H-pyrazol-3-yl)pyrimidin-4-yl)azetidin-3-yl)carbamate]	40 to 60	100 to 500	

SMILES	Emax [%]	EC50 [1] [nM]	EC50 (top of curve fitted to 100%, read-out: HEK assay EC50 - constrained) [nM]
O=C(O)CN(CC1CC1)c1nc(-c2cc(-c3ccon3)n(Cc3ccccc3F)n2)ncc1F [Compound I-203]	40 to 60	100 to 500	
O=C(O)C1(Nc2nc(-c3cc(-c4ccon4)n(Cc4ccccc4F)n3)ncc2F)CCC1 [Compound I-94]	60 to 80	1000 to 5000	
CC(C)C[C@@H](C(=O)O)N(C)c1nc(-c2cc(-c3ccon3)n(Cc3ccccc3F)n2)ncc1F [Compound I-137]	80 to 100	100 to 500	
COC1CCN(c2nc(-c3cc(-c4ccon4)n(Cc4ccccc4F)n3)ncc2F)C1 (stereo not drawn) [Compound I-17]	60 to 80	100 to 500	
O=C(O)CC1CCCN(c2nc(-c3cc(-c4ccon4)n(Cc4ccccc4F)n3)ncc2F)C1 (stereo not drawn) [Compound I-229]	20 to 40	> 10000	
CC(C)(C)OC(=O)N1CCCC(Nc2nc(-c3cc(-c4ccon4)n(Cc4ccccc4F)n3)ncc2F)C1 (stereo not drawn) [Compound I-27]	60 to 80	500 to 1000	
COC1CCN(c2nc(-c3cc(-c4ccon4)n(Cc4ccccc4F)n3)ncc2F)CC1 [Compound I-22]	60 to 80	100 to 500	
Fc1ccccc1Cn1nc(-c2ncc(F)c(N3CCCC(F)C3)n2)cc1-c1ccon1 (stereo not drawn) [Compound I-56]	80 to 100	100 to 500	
CC(C)(C)OC(=O)N1CCCN1c1nc(-c2cc(-c3ccon3)n(Cc3ccccc3F)n2)ncc1F [Compound I-183]	60 to 80	100 to 500	
Fc1ccccc1Cn1nc(-c2ncc(F)c(N3CCCN3)n2)cc1-c1ccon1 [Compound I-193]	60 to 80	1000 to 5000	
CC(C)C[C@H](Nc1nc(-c2cc(-c3ccon3)n(Cc3ccccc3F)n2)ncc1F)C(=O)NS(=O)(=O)C1CC1 [Compound I-157]	60 to 80	100 to 500	
O=C(O)[C@H](Nc1nc(-c2cc(-c3ccon3)n(Cc3ccccc3F)n2)ncc1F)C1CC1 [Compound I-240]	60 to 80	500 to 1000	
CCC(CC)(CNc1nc(-c2cc(-c3ccon3)n(Cc3ccccc3F)n2)ncc1F)C(=O)O [Compound I-217]	60 to 80	100 to 500	
OC1CCCN(c2nc(-c3cc(-c4ccon4)n(Cc4ccccc4F)n3)ncc2F)C1 (stereo not drawn) [Compound I-18]	60 to 80		
CC(C)CN(CC(=O)O)c1nc(-c2cc(-c3ccon3)n(Cc3ccccc3F)n2)ncc1F [Compound I-209]	80 to 100	500 to 1000	
O=C(O)C1CN(c2nc(-c3cc(-c4ccon4)n(Cc4ccccc4F)n3)ncc2F)CCO1 (stereo not drawn) [Compound I-83]			> 10000

Further lines, results first:

Emax [%]	EC50 [1] [nM]	EC50 (top of curve fitted to 100%, read-out: HEK assay EC50 - constrained) [nM]	SMILES
60 to 80	1 to 100		CNS(=O)(=O)N1CCN(c2nc(-c3cc(-c4ccon4)n(Cc4ccccc4F)n3)ncc2F)CC1 [Compound I-158]
100 to 120	1 to 100		CN(Cc1cccc(C(=O)O)c1)c1nc(-c2cc(-c3ccon3)n(Cc3ccccc3F)n2)ncc1F [Compound I-274]
100 to 120	1 to 100		CC(C)[C@@H](C(=O)O)N(C)c1nc(-c2cc(-c3ccon3)n(Cc3cccc(F)c3F)n2)ncc1F [Compound I-235]
60 to 80	100 to 500		OC1CCN(c2nc(-c3cc(-c4ccon4)n(Cc4ccccc4F)n3)ncc2F)C1 (stereo not drawn) [Compound I-20]
60 to 80	100 to 500		O=C(O)C1CCCCCN1c1nc(-c2cc(-c3ccon3)n(Cc3ccccc3F)n2)ncc1F (stereo not drawn) [Compound I-75]
80 to 100	100 to 500		O=C(O)[C@H]1CCC[C@H]1Nc1nc(-c2cc(-c3ccon3)n(Cc3ccccc3F)n2)ncc1F [Compound I-156]
60 to 80	100 to 500		CC(C)[C@@H](C(=O)O)N(C)c1ccnc(-c2cc(-c3ccon3)n(Cc3ccccc3F)n2)n1 [Compound I-272]
60 to 80	1 to 100		CC(C)[C@H](CNc1nc(-c2cc(-c3ccon3)n(Cc3ccccc3F)n2)ncc1F)C(=O)O [Compound I-171]
80 to 100	1 to 100		O=C(O)C1(c2ccc(F)cc2)CCN(c2nc(-c3cc(-c4ccon4)n(Cc4ccccc4F)n3)ncc2F)CC1 [Compound I-255]
40 to 60	100 to 500		CCOC(=O)CN(Cc1ccccc1)c1nc(-c2cc(-c3ccon3)n(Cc3ccccc3F)n2)ncc1F [Compound I-166]
60 to 80	100 to 500		N#CCNc1nc(-c2cc(-c3ccon3)n(Cc3ccccc3F)n2)ncc1F [Compound I-141]
60 to 80	100 to 500		CC(=O)NS(=O)(=O)N1CCN(c2nc(-c3cc(-c4ccon4)n(Cc4ccccc4F)n3)ncc2F)CC1 [Compound I-177]
60 to 80	1 to 100		Fc1ccccc1Cn1nc(-c2ncc(F)c(N3CCC4(CCOCC4)C3)n2)cc1-c1ccon1 [Compound I-43]
60 to 80	1 to 100		CC(C)C(CC(=O)O)N(C)c1nc(-c2cc(-c3ccon3)n(Cc3ccccc3F)n2)ncc1F (stereo not drawn) [Compound I-195]
60 to 80	1 to 100		CCC(CC)(CN(C)c1nc(-c2cc(-c3ccon3)n(Cc3ccccc3F)n2)ncc1F)C(=O)O [Compound I-252]
80 to 100	1 to 100		CC(C)C[C@@H](Nc1nc(-c2cc(-c3ccon3)n(Cc3ccccc3F)n2)ncc1F)C(=O)O [Compound I-103]
80 to 100	1 to 100		C[C@H](C[C@@H](Nc1nc(-c2cc(-c3ccon3)n(Cc3ccccc3F)n2)ncc1F)C(=O)O)C(F)(F)F [Compound I-225]
80 to 100	1 to 100		CN(Cc1ccc(C(=O)O)cc1)c1nc(-c2cc(-c3ccon3)n(Cc3ccccc3F)n2)ncc1F [Compound I-275]
